Laboratory results published in patent publication US9840494B2, “Quinazoline derivative” (Tianjin Hemay Oncology Pharmaceutical Co., Ltd., priority 2013, dated 2017).
pIC50: −log10 of the molar value.

Test system: human pancreatic cancer cell line AsPC-1
Test: In vitro inhibitory action on human tumor cells, AsPC-1 (MTT)
Format: cell-based
Conditions: ASPC1, 72 h, MTT assay, usually 3 days
Procedure: Human epidermoid carcinoma cell line A431, human non-small cell lung cancer cell line HCC827, head and neck cancer cell lines Fadu and human pancreatic cancer cell line AsPC-1 were purchased from Cell Bank, Chinese Academy of Sciences.
3.2 Cell culture method: cells were cultured in the complete medium at 37° C. under 5% CO2 and saturated humidity until logarithmic growth phase, i.e., adherent cells substantially approach complete confluence, and then collected for subsequent assay. For the adherent cells, they were firstly digested with trypsin/EDTA to detach.
3.3 A certain number of cells were seeded into 96-well cell culture plates (hereinafter referred to as 96-well plates). […] Finally, total cellular protein in the wells was determined using SRB assay, or cell viability was determined with MTT assay.
3.3.1 The cell seeding concentration was determined by cell growth curve assay which completely simulates compound inhibition assay process. […]
3.4 Dilution and addition of compounds: the concentration of DMSO that can be tolerant by the cells was determined by DMSO tolerance assay, and thereby selecting the dilution and addition methods of compounds. The effects of different concentrations of DMSO on cell growth were determined by DMSO tolerance assay. […] Two methods are finally determined as follows. […]

COCCOc1cc2ncnc(Nc3ccc(F)c(Cl)c3)c2cc1NC(=O)C=C1CCN(CCOC)CC1.CS(=O)(=O)O [Compound 3, N-[4-(3-chloro-4-fluorophenylamino)-7-(2-methoxyethoxy)quinazolin-6-yl]-2-[1-(2-methoxyethyl)piperidin-4-ylidene]acetamide dimethylsulfonate]
pIC50: 5.37
